According to ChEMBL document CHEMBL1221220, “Transport and signaling via the amino acid binding site of the yeast Gap1 amino acid transceptor” (Nat Chem Biol, 2009):
Positions count from the first letter of the chain named. Calls of active or inactive are those of the source. No cut-off for these calls is given here.

Key:
[1] = system: T1, General amino-acid permease GAP1 (Saccharomyces cerevisiae), P19145 [S398C]; assay: Activation of yeast Gap1 S398C mutant-mediated amino acid uptake at 10 mM
T1 sequence (whole entry): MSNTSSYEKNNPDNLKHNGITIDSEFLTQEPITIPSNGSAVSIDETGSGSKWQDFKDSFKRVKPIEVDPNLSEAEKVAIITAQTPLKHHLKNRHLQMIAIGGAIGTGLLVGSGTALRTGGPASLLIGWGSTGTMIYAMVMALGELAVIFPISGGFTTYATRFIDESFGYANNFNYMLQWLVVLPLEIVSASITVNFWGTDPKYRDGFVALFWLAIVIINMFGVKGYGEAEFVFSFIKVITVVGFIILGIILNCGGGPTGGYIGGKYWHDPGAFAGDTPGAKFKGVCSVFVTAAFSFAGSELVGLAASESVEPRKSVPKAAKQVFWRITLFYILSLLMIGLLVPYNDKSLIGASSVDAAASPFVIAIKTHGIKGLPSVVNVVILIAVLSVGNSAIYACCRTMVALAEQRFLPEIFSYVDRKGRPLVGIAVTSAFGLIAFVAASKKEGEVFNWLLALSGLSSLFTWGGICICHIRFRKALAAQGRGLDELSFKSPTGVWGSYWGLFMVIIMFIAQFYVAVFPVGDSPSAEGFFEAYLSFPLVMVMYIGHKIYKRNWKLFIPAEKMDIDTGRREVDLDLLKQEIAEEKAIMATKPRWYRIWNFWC

[2] = system: T2, General amino-acid permease GAP1 (Saccharomyces cerevisiae), P19145 [L387C]; assay: Induction of yeast Gap1 L387C mutant-mediated trehalose activation at 2 mM in presence of 10 mM MTSEA treated before compound addition
T2 sequence (whole entry): T1 sequence (whole entry) with L387C, C398S

[3] = system: T3, General amino-acid permease GAP1 (Saccharomyces cerevisiae), P19145 [T400C]; assay: Induction of yeast Gap1 T400C mutant-mediated trehalose activation at 2 mM in presence of 10 mM MTSEA treated before compound addition
T3 sequence (whole entry): T1 sequence (whole entry) with C398S, T400C

[4] = target: T4, General amino-acid permease GAP1 (Saccharomyces cerevisiae) (UniProt P19145); assay: Induction of nitrogen-starved wild type sigma1278b yeast Gap1-mediated trehalase activation at 2 mM in presence of 10 mM MTSEA treated before compound addition
T4 sequence (whole entry): T1 sequence (whole entry) with C398S

For NC(=O)NCCC[C@H](N)C(=O)O, the Activity [1] was “inactive”, the inhibition [2] was “Active” and the inhibition [3] was “Active”. For the same compound, the inhibition [4] was “Active”.
